Assay [1] has as its target TEAD1 protein (YAP Binding Domain) (Homo sapiens, UniProt P28347). The assay can be described thus: TEAD1 lipid pocket compound displacement assay (TR-FRET, Cy5-probe). To be noted: 60 minutes incubation at room temperature; TR-FRET 665 nm/620 nm; read-out: CDA IC50. An outline of the steps: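 His-tagged TEAD1 YAP-binding domain pre-mixed with a Cy5-labelled lipid-pocket probe and Tb-anti-His antibody; compounds incubated with the complex 60 min at room temperature. TR-FRET read at 665/620 nm; IC50 from 4-parameter non-linear fit of probe displacement.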

Another assay concerns NCI-H226. Briefly: 72H TEAD Proliferation Assay (Cell Titer-Glo 2.0). In kind it is cell-based. To be noted: Homo sapiens, NCI-H226, 72 h, CTG 2.0, cell line not given. How it is done:
The effect of TEAD inhibition on cell proliferation was assayed using Cell Titer Glo (CTG) 2.0 to measure response in mesothelioma cell lines NCI-H226 (ATCC, #CRL-5826) and NCI-H28 (ATCC, #CRL-5820).
The 72H TEAD Proliferation assay utilizes Cell Titer-Glo 2.0 (Promega, #G9243) to measure the proliferation of cells in the presence or absence of compound. Cell Titer-Glo 2.0 determines the amount of viable cells by quantifying ATP (an indication of metabolically active cells). It utilizes the conversion of Luciferin to Oxyluciferin and a luminescent signal with the use of ATP to report the quantity of viable cells in culture. Within cells that are continually growing, ATP is being synthesized to meet their metabolic demands, meanwhile the opposite is true for cells that are dying or slowing down their proliferation and either no longer using ATP or are using less, respectively. The NF2-deficient NCI-H226 has been genetically validated as a cell line that is sensitive to TEAD inhibition. The NF2-wild type NCI-H28 has been genetically validated as a cell line that is not sensitive to TEAD inhibition and grows independently of TEAD activity.
Compounds were screened against the responsive NCI-H226 cell line to assess the compounds' ability to inhibit TEAD and cell growth. Compounds were also screened against the non-responsive NCI-H28 cell line to ascertain whether the inhibition of cell growth was due to inhibition of the target TEAD or whether the inhibition was due to off-target cytotoxicity.
1) Assay ready plates (ARPs) were prepared by Echo acoustic liquid handler. For each compound, duplicate of 10-point half-log dilution series were dispensed in a 384-well microplate (Corning 3571).
5) NCI-H226 or NCI-H28 cells were harvested from culture in Assay Medium 1 and the multidrop Combi reagent dispenser was used to seed cells at 500 cells per 50 ul in each well of the ARPs and one Corning 3571 plate without compounds for Time 0 (TO) readout.
6) The TO plate was incubated for 2 hours at 37° C. with 5% CO2 to allow cells to settle, then the CTG Assay was performed.
7) All ARPs were incubated for 72 hours at 37° C. with 5% CO2, then the CTG Assay was performed for Time 72H (T72) readout.
8) CTG Assay: Bravo liquid handler (Agilent) was used to add 25 ul of CTG 2.0 to all columns of the plate except for Column 24, which was used to subtract out the background. After CTG addition, plates were placed on shaker at 800 RPM for 15 minutes at room temperature and kept in the dark. Luminescence was measured using EnVision multilabel plate reader with ultra-sensitive detection module.
9) Data Analysis: First background luminescence (no CTG wells) was subtracted from luminescence reading of all wells, then TO luminescence was subtracted from T72 luminescence. To compare anti-proliferative effect of compounds, GI50 was obtained by fitting dose response curves with nonlinear regression curve fit.
In general terms: In ATP-based viability assays light output follows the ATP content of the culture.

The next assay has as its target His-Tev-Avi-TEAD1 (Homo sapiens, UniProt P28347). The assay can be described thus: TEAD mass modification assay (iMS). In kind it is binding. To be noted: 50 μM compound, 1 hour, room temperature. How it is done: Compound stock (10 mM) was diluted to 2.5 mM with DMSO and His-Tev-Avi-TEAD1 was diluted to 5 μM with Reaction Buffer (50 mM Tris pH 8.0, 150 mM NaCl, and 1 mM TCEP). Compound (1 μL) is incubated with 49 μL protein at room temperature for 1 hour (final compound concentration was 50 μM). The sample (20 μL) was shipped on dry ice to MSBioworks for iMS analysis.
This assay confirms whether or not TEAD is covalently bound to a test compound (i.e., whether the protein's mass is modified). […] Compounds 80 (see FIG. 2), 89 (see FIG. 3), 73 (see FIG. 4), 53 (see FIG. 5), and 59 (see FIG. 6) were also tested in this fashion.

The structures appear in SMILES notation.

The IC50 is the concentration that gives 50% inhibition. As usually defined, the GI50 is the concentration at which growth is held to half of that of the control. Read a high GI50 as lower sensitivity of the cells.

Sequence of TEAD1 protein (YAP Binding Domain) (P28347 209-426 limits assumed): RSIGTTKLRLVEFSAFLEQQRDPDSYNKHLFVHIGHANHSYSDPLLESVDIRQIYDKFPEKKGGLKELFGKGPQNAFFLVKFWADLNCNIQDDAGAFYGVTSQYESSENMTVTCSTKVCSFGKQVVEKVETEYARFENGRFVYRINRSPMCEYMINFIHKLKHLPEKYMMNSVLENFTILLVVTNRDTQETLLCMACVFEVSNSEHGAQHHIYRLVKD
Sequence of His-Tev-Avi-TEAD1 (P28347 209-426 limits assumed): as above

For the molecule `C=CC(=O)Nc1ccc(OCC2CCC(C(F)(F)F)CC2)c(F)c1` (stereo not shown) [Compound 59, N-(3-fluoro-4-((4-(trifluoromethyl)cyclohexyl)methoxy)phenyl)acrylamide], the IC50 in assay [1] is no more than 250 nM. This molecule also showed a GI50 with NCI-H226 greater than 3000 nM. Further, the “mass modification of TEAD1 (covalent binding)” value (from here on “mass modification”) at His-Tev-Avi-TEAD1 is listed as “mass modification of TEAD1”.

`C=CC(=O)Nc1ccc(OCc2cccc(Cl)c2Cl)c(F)c1` [Compound 80, N-(4-((2,3-dichlorobenzyl)oxy)-3-fluorophenyl)acrylamide]: the IC50 in assay [1] is no more than 250 nM. The GI50 with NCI-H226 is 250 to 1000 nM. In addition, on His-Tev-Avi-TEAD1, the “mass modification” value is “mass modification of TEAD1”.

For `C=CC(=O)Nc1ccc(OCc2ccc(C(F)(F)F)nc2)c(F)c1` [Compound 73, N-(3-fluoro-4-((6-(trifluoromethyl)pyridin-3-yl)methoxy)phenyl)acrylamide], in assay [1], the IC50 is 500 to 2000 nM. Also, in the assay with NCI-H226, the GI50 lay in the range of 250 to 1000 nM. On His-Tev-Avi-TEAD1, the “mass modification” value is listed as “mass modification of TEAD1”.

On to `C=CC(=O)Nc1ccc(OCc2ccccc2Cl)c(F)c1` [Compound 53, N-(4-((2-chlorobenzyl)oxy)-3-fluorophenyl)acrylamide], for which the IC50 in assay [1] lay in the range of 500 to 2000 nM. The GI50 in the assay with NCI-H226 was 1000 to 3000 nM. For the same molecule, on His-Tev-Avi-TEAD1, the “mass modification” value is given as “mass modification of TEAD1”.

Turning to `C=CC(=O)Nc1ccc(OCc2cccc(F)c2Cl)c(C#N)c1` [Compound 39, N-(4-((2-chloro-3-fluorobenzyl)oxy)-3-cyanophenyl)acrylamide], the IC50 in assay [1] lay in the range of 250 to 500 nM. Besides, the GI50 in the assay on NCI-H226 was no more than 250 nM.

Consider `C=CC(=O)Nc1ccc2c(c1)OC(c1cccc(C(F)(F)F)c1)O2` (stereo not shown) [Compound 146, N-(2-(3-(trifluoromethyl)phenyl)benzo[d][1,3]dioxol-5-yl)acrylamide], for which the IC50 in assay [1] was no more than 250 nM. The same molecule showed a GI50 in the assay with NCI-H226 of no more than 250 nM.

As to `C=CC(=O)Nc1cc2nc(CCC(F)(F)F)oc2cc1F` [Compound 144, N-(6-fluoro-2-(3,3,3-trifluoropropyl)benzo[d]oxazol-5-yl)acrylamide], in assay [1], the IC50 was greater than 2000 nM. Further, the GI50 in the assay with NCI-H226 fell in the range of 250 to 1000 nM.

Turning to `C=CC(=O)Nc1ccc(Oc2ccc(F)cc2)c(F)c1` [Compound 107, N-(3-fluoro-4-(4-fluorophenoxy)phenyl)acrylamide], the IC50 in assay [1] was no more than 250 nM. The same molecule registered a GI50 in the assay with NCI-H226 of 250 to 1000 nM.

Turning to `C=CC(=O)Nc1ccc(OCC2CCC(F)(F)CC2)c2ccccc12` [Compound 49, N-(4-((4,4-difluorocyclohexyl)methoxy)naphthalen-1-yl)acrylamide], the IC50 in assay [1] was no more than 250 nM. Further, in the assay on NCI-H226, the GI50 was no more than 250 nM.

With `C=CC(=O)Nc1ccc2c(c1)OC(C)(c1cccc(C(F)(F)F)c1)O2` (stereo not shown) [147*, N-(2-methyl-2-(3-(trifluoromethyl)phenyl)benzo[d][1,3]dioxol-5-yl)acrylamide], in assay [1], the IC50 is no more than 250 nM. The molecule further displayed a GI50 in the assay on NCI-H226 of 250 to 1000 nM.

As to `C=CC(=O)Nc1ccc(OCC2CCCC(F)(F)C2)c(F)c1` (stereo not shown) [Compound 24, N-(4-((3,3-difluorocyclohexyl)methoxy)-3-fluorophenyl)acrylamide], in assay [1], the IC50 was no more than 250 nM. Moreover, the GI50 with NCI-H226 is no more than 250 nM.

Consider `CN(C)C/C=C/C(=O)Nc1ccc(OCc2cccc(F)c2)c(F)c1` [Compound 125, (E)-4-(dimethylamino)-N-(3-fluoro-4-((3-fluorobenzyl)oxy)phenyl)but-2-enamide], for which the IC50 in assay [1] was greater than 2000 nM. The molecule further gave a GI50 in the assay with NCI-H226 greater than 3000 nM.

With `C=CC(=O)Nc1ccc(OCc2cccc(F)c2Cl)c(F)c1` [Compound 83, N-(4-((2-chloro-3-fluorobenzyl)oxy)-3-fluorophenyl)acrylamide], in assay [1], the IC50 is no more than 250 nM. The GI50 in the assay on NCI-H226 was 250 to 1000 nM.

Take `C=C(F)C(=O)Nc1ccc2c(c1)OC(c1cccc(C(F)(F)F)c1)O2` (stereo not shown) [Compound 148, 2-fluoro-N-(2-(3-(trifluoromethyl)phenyl)benzo[d][1,3]dioxol-5-yl)acrylamide]: the IC50 in assay [1] lay within 500 to 2000 nM. Besides, the GI50 in the assay with NCI-H226 lay in the range of 250 to 1000 nM.

In the case of `C=CC(=O)Nc1ccc(OCc2cnc(C(F)(F)F)nc2)c(F)c1` [Compound 98, N-(3-fluoro-4-((2-(trifluoromethyl)pyrimidin-5-yl)methoxy)phenyl)acrylamide], the IC50 in assay [1] is greater than 2000 nM. The same molecule came in with a GI50 in the assay on NCI-H226 of 1000 to 3000 nM.

For `C=CC(=O)Nc1ccc(OCc2cccc(F)c2)c(C2CCCCC2)c1` [Compound 3, N-(3-cyclohexyl-4-((3-fluorobenzyl)oxy)phenyl)acrylamide], in assay [1], the IC50 lay in the range of 500 to 2000 nM. In the assay with NCI-H226, this molecule returned a GI50 greater than 3000 nM.

Take `C=CC(=O)Nc1ccc(OCc2cccnc2Cl)c(F)c1` [Compound 76, N-(4-((2-chloropyridin-3-yl)methoxy)-3-fluorophenyl)acrylamide]: the IC50 in assay [1] is greater than 2000 nM. Further, the GI50 in the assay with NCI-H226 was greater than 3000 nM.

With `C=C=CC(=O)Nc1ccc(OCc2cccc(F)c2)c(F)c1` [Compound 126], the IC50 in assay [1] was no more than 250 nM. In the assay on NCI-H226, this molecule showed a GI50 of 1000 to 3000 nM.

Regarding `C=CC(=O)Nc1ccc(-c2ccc(C(C)(C)C)cc2)c2ncccc12` [Compound 151, N-(8-(4-(tert-butyl)phenyl)quinolin-5-yl)acrylamide], the IC50 in assay [1] fell in the range of 250 to 500 nM. The GI50 with NCI-H226 was no more than 250 nM.

For the molecule `C=CC(=O)Nc1ccc(OCC2CCC(F)(F)CC2)c(F)c1` [Compound 58, N-(4-((4,4-difluorocyclohexyl)methoxy)-3-fluorophenyl)acrylamide], the IC50 in assay [1] is no more than 250 nM. This molecule had a GI50 in the assay with NCI-H226 of 250 to 1000 nM. In addition, the “mass modification” value at His-Tev-Avi-TEAD1 was “mass shift indicates modification of TEAD1”. Besides, the “mass of the protein treated with compound” value on His-Tev-Avi-TEAD1 (untreated protein m/z 30,030.70) is given as 30,344.29 m/z.

Consider `C=CC(=O)Nc1ccc(OCC2CCC(F)(F)CC2)c2[nH]cnc12` [Compound 22, N-(7-((4,4-difluorocyclohexyl)methoxy)-1H-benzo[d]imidazol-4-yl)acrylamide], for which the IC50 in assay [1] is 500 to 2000 nM. Further, the GI50 with NCI-H226 lay within 250 to 1000 nM.

Take `C=CC(=O)Nc1cc2nc(Cc3ccc(F)cc3)oc2cc1F` [Compound 142, N-(6-fluoro-2-(4-fluorobenzyl)benzo[d]oxazol-5-yl)acrylamide]: the IC50 in assay [1] was in the range of 500 to 2000 nM. In the assay with NCI-H226, this molecule returned a GI50 of 1000 to 3000 nM.

On to `C=CC(=O)Nc1ccc(NCc2cccc(F)c2)c(F)c1` [Compound 101, N-(3-fluoro-4-((3-fluorobenzyl)amino)phenyl)acrylamide], for which the IC50 in assay [1] was 500 to 2000 nM. This molecule also returned a GI50 with NCI-H226 of 1000 to 3000 nM.
